# Values quoted from earlier work as cited in US20150328159A1, “Composition” (Innovata Limited, priority 2009, published 2015).
substance,measurement,value
hyaluronic acid,solubility in organic solvents,insoluble
